Laboratory results published in patent US6624288B1 (priority 1997, dated 2003).

Tested on: Isolated medial neurons from Aplysia oculifera pleuropedal ganglia
Assay type: cell-based

NC1=N[C@H](O)[C@H]2[C@H]3O[C@]4(O)O[C@@H]([C@@H](O)[C@@]2(N1)[C@@H]4O)[C@]3(O)CO [tetrodotoxin]
effect on TxI-induced spike prolongation: reduced the TxI-induced spike prolongation
